# Test results taken from patent publication US9359308B2, “Pyrazine kinase inhibitors” (Portola Pharmaceuticals, Inc., priority 2011, dated 2016).
# Molecular target: T1, full length active recombinant SYK enzyme (Homo sapiens, UniProt P43405)
# T1 construct: full length active recombinant SYK enzyme (Millipore, Calif.); purchased Millipore
# Test: Inhibition of Syk tyrosine phosphorylation activity (LANCE TR-FRET kinase assay)
# Assay type: biochemical
# Settings: activity in the Syk assays, class symbols
# Summary of the method: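 1 nM full-length active recombinant SYK phosphorylated 550 nM biotin-DEEDYESP-OH with 100 μM ATP in 50 mM Tris pH 7.5, 5 mM MgCl2, 1 mM DTT and 3% DMSO for 1 h at room temperature. After EDTA quench, Eu-anti-phosphotyrosine/SA-APC TR-FRET was read after 1 h. IC50s came from non-linear regression.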
row,SMILES,IC50
1,"CN(CC(F)(F)F)C(=O)c1ccc(Nc2nc(N[C@@H]3CCCC[C@@H]3N)cnc2C(N)=O)cc1 [Example 298, 5-((1R,2S)-2-aminocyclohexylamino)-3-(4-(methyl(2,2,2-trifluoroethyl)carbamoyl)phenylamino)pyrazine-2-carboxamide]",0.01 to 0.1 µM
2,"NC(=O)c1ncc(N[C@@H]2CCCC(F)(F)[C@@H]2N)nc1Nc1ccc2cccnc2c1 [Example 384, 5-((1R,2R)-2-amino-3,3-difluorocyclohexylamino)-3-(quinolin-7-ylamino)pyrazine-2-carboxamide]",0.01 to 0.1 µM
3,"NC(=O)c1ncc(N[C@@H]2CCCC(F)(F)[C@@H]2N)nc1Nc1cnc2cc(F)ccc2c1 [Example 227, 5-((1R,2R)-2-amino-3,3-difluorocyclohexylamino)-3-(7-fluoroquinolin-3-ylamino)pyrazine-2-carboxamide]",0.01 to 0.1 µM
4,"COc1ccc(Nc2nc(N[C@@H](C(N)=O)C(C)C)cnc2C(N)=O)cn1 [Example 326, (R)-5-(1-amino-3-methyl-1-oxobutan-2-ylamino)-3-(6-methoxypyridin-3-ylamino)pyrazine-2-carboxamide]",0.01 to 0.1 µM
5,"CN(C)C(=O)c1cccc(Nc2nc(N[C@@H]3CCCC[C@@H]3N)cnc2C(N)=O)c1 [Example 283, 5-((1R,2S)-2-aminocyclohexylamino)-3-(3-(dimethylcarbamoyl)phenylamino)pyrazine-2-carboxamide]",0.01 to 0.1 µM
6,"NC(=O)c1ncc(N[C@@H]2CCCC(F)(F)[C@@H]2N)nc1Nc1ccc2c(c1)CCC2 [Example 454, 5-(((1R,2R)-2-amino-3,3-difluorocyclohexyl)amino)-3-((2,3-dihydro-1H-inden-5-yl)amino)pyrazine-2-carboxamide]",0.01 to 0.1 µM
7,"CC[C@@H](Nc1nc(Nc2snc(C)c2I)c(C(N)=O)nc1I)C(N)=O [Example 134, (R)-5-((1-amino-1-oxobutan-2-yl)amino)-6-iodo-3-((4-iodo-3-methylisothiazol-5-yl)amino)pyrazine-2-carboxamide]",0.1 to 1 µM
8,"CC[C@@H](Nc1cnc(C(N)=O)c(Nc2cnc(OC)c(C)c2)n1)C(N)=O [Example 311, (R)-5-(1-amino-1-oxobutan-2-ylamino)-3-(6-methoxy-5-methylpyridin-3-ylamino)pyrazine-2-carboxamide]",0.01 to 0.1 µM
9,"Cc1cccc(Nc2nc(N[C@H](CC(C)C)C(N)=O)cnc2C(N)=O)c1 [Example 63, (R)-5-(1-amino-4-methyl-1-oxopentan-2-ylamino)-3-(m-tolylamino)pyrazine-2-carboxamide]",0.01 to 0.1 µM
10,"CC(=O)N1CCC[C@H](Nc2cnc(C(N)=O)c(Nc3cnc4ccccc4c3)n2)C1 [Example 109, (S)-5-((1-acetylpiperidin-3-yl)amino)-3-(quinolin-3-ylamino)pyrazine-2-carboxamide]",> 1 µM
11,"Cc1cc(Nc2nc(N[C@H]3CN[C@@H](CO)C3)cnc2C(N)=O)sn1 [Example 139, 5-(((3R,5R)-5-(hydroxymethyl)pyrrolidin-3-yl)amino)-3-((3-methylisothiazol-5-yl)amino)pyrazine-2-carboxamide]",0.01 to 0.1 µM
12,"NC(=O)c1ncc(N[C@@H]2CCNC2)nc1Nc1cnn2ccccc12 [Example 107, (R)-3-(pyrazolo[1,5-a]pyridin-3-ylamino)-5-(pyrrolidin-3-ylamino)pyrazine-2-carboxamide]",0.01 to 0.1 µM
13,"CC(C)C[C@@H](Nc1cnc(C(N)=O)c(Nc2cccc(-c3ccccn3)c2)n1)C(N)=O [Example 98, (R)-5-(1-amino-4-methyl-1-oxopentan-2-ylamino)-3-(3-(pyridin-2-yl)phenylamino)pyrazine-2-carboxamide]",0.01 to 0.1 µM
14,"CC[C@@H](Nc1cnc(C(N)=O)c(Nc2ccc(C(=O)N3CCC3)nc2)n1)C(N)=O [Example 300, (R)-5-(1-amino-1-oxobutan-2-ylamino)-3-(6-(azetidine-1-carbonyl)pyridin-3-ylamino)pyrazine-2-carboxamide]",0.01 to 0.1 µM
15,"CC(=O)N1CC[C@@H](Nc2cnc(C(N)=O)c(Nc3ccc4ncccc4c3)n2)C1 [Example 111, (R)-5-((1-acetylpyrrolidin-3-yl)amino)-3-(quinolin-6-ylamino)pyrazine-2-carboxamide]",> 1 µM

# Further lines, results first:
row,IC50,SMILES
1,< 0.001 µM,"NC(=O)c1ncc(N[C@@H]2CCCC[C@@H]2N)nc1Nc1cccc(-c2ncco2)c1 [Example 444, 5-(((1R,2S)-2-aminocyclohexyl)amino)-3-((3-(oxazol-2-yl)phenyl)amino)pyrazine-2-carboxamide]"
2,0.001 to 0.01 µM,"CC[C@@H](Nc1cnc(C(N)=O)c(Nc2ccc3ncccc3c2)n1)C(N)=O [Example 74, (R)-5-(1-amino-1-oxobutan-2-ylamino)-3-(quinolin-6-ylamino)pyrazine-2-carboxamide]"
3,0.001 to 0.01 µM,"NC(=O)c1ncc(N[C@@H]2CCCC[C@@H]2N)nc1Nc1ccc2cccnc2c1 [Example 435, 5-(((1R,2S)-2-aminocyclohexyl)amino)-3-(quinolin-7-ylamino)pyrazine-2-carboxamide]"
4,0.001 to 0.01 µM,"CC(C)C[C@@H](Nc1cnc(C(N)=O)c(Nc2cnc3cccnc3c2)n1)C(N)=O [Example 407, (R)-3-(1,5-naphthyridin-3-ylamino)-5-(1-amino-4-methyl-1-oxopentan-2-ylamino)pyrazine-2-carboxamide]"
5,< 0.001 µM,"NC(=O)c1ncc(N[C@@H]2CCCC[C@@H]2N)nc1Nc1ccc2[nH]ncc2c1 (racemic) [Example 54, cis-3-(1H-indazol-5-ylamino)-5-(2-aminocyclohexylamino)pyrazine-2-carboxamide]"
6,0.001 to 0.01 µM,"NC(=O)c1ncc(N[C@@H]2CCNC2)nc1Nc1cccc(-n2nccn2)c1 [Example 105, (R)-3-((3-(2H-1,2,3-triazol-2-yl)phenyl)amino)-5-(pyrrolidin-3-ylamino)pyrazine-2-carboxamide]"
7,0.001 to 0.01 µM,"CN(C)C(=O)c1cc(Nc2nc(N[C@@H]3CCCC[C@@H]3N)cnc2C(N)=O)sn1 [Example 248, 5-(6-((1R,2S)-2-aminocyclohexylamino)-3-carbamoylpyrazin-2-ylamino)-N,N-dimethylisothiazole-3-carboxamide]"
8,0.001 to 0.01 µM,"NC(=O)c1ncc(N[C@@H]2CCCC[C@@H]2N)nc1Nc1cnc2cc(F)ccc2c1 [Example 201, 5-((1R,2S)-2-aminocyclohexylamino)-3-(7-fluoroquinolin-3-ylamino)pyrazine-2-carboxamide]"
9,0.001 to 0.01 µM,"NC(=O)c1ncc(N[C@@H]2CCCC(F)(F)[C@@H]2N)nc1Nc1ccc2cnccc2c1 [Example 364, 5-((1R,2R)-2-amino-3,3-difluorocyclohexylamino)-3-(isoquinolin-6-ylamino)pyrazine-2-carboxamide]"
10,0.001 to 0.01 µM,"Cc1cc(Nc2nc(NC3(C(N)=O)CC3)cnc2C(N)=O)sn1 [Example 220, 5-(1-carbamoylcyclopropylamino)-3-(3-methylisothiazol-5-ylamino)pyrazine-2-carboxamide]"
11,0.001 to 0.01 µM,"NC(=O)c1ncc(N[C@@H]2CCCC(F)(F)[C@@H]2N)nc1Nc1csc2ncccc12 [Example 448, 5-(((1R,2R)-2-amino-3,3-difluorocyclohexyl)amino)-3-(thieno[2,3-b]pyridin-3-ylamino)pyrazine-2-carboxamide]"
12,0.001 to 0.01 µM,"NC(=O)c1ncc(N[C@@H]2CCCC[C@@H]2N)nc1Nc1snc2ccsc12 [Example 267, 5-((1R,2S)-2-aminocyclohexylamino)-3-(thieno[3,2-c]isothiazol-3-ylamino)pyrazine-2-carboxamide]"
13,0.001 to 0.01 µM,"NC(=O)c1ncc(N[C@@H]2CCCC[C@@H]2N)nc1Nc1cccc(-c2ncccn2)c1 [Example 12, 5-((1R,2S)-2-aminocyclohexylamino)-3-(3-(pyrimidin-2-yl)phenylamino)pyrazine-2-carboxamide]"
14,< 0.001 µM,"NC(=O)c1ncc(N[C@@H]2CCCC[C@@H]2N)nc1Nc1cc(F)c2ncccc2c1 [Example 205, 5-((1R,2S)-2-aminocyclohexylamino)-3-(8-fluoroquinolin-6-ylamino)pyrazine-2-carboxamide]"
15,< 0.001 µM,"NC(=O)c1ncc(N[C@@H]2CCCC[C@@H]2N)nc1Nc1csc2ncccc12 [Example 428, 5-(((1R,2S)-2-aminocyclohexyl)amino)-3-(thieno[2,3-b]pyridin-3-ylamino)pyrazine-2-carboxamide]"
16,0.001 to 0.01 µM,"Cc1cc(Nc2nc(N[C@H](CC(F)F)C(N)=O)cnc2C(N)=O)sn1 [Example 119, (R)-5-((1-amino-4,4-difluoro-1-oxobutan-2-yl)amino)-3-((3-methylisothiazol-5-yl)amino)pyrazine-2-carboxamide]"
17,0.001 to 0.01 µM,"NC(=O)c1ncc(N[C@@H]2CCCC(F)(F)[C@@H]2N)nc1Nc1cnn2ccccc12 [Example 447, 5-(((1R,2R)-2-amino-3,3-difluorocyclohexyl)amino)-3-(pyrazolo[1,5-a]pyridin-3-ylamino)pyrazine-2-carboxamide]"
18,0.001 to 0.01 µM,"CC(C)[C@@H](Nc1cnc(C(N)=O)c(Nc2cnc3cc(F)ccc3c2)n1)C(N)=O [Example 203, (R)-5-(1-amino-3-methyl-1-oxobutan-2-ylamino)-3-(7-fluoroquinolin-3-ylamino)pyrazine-2-carboxamide]"
19,0.001 to 0.01 µM,"NC(=O)c1ncc(N[C@H](CC2CC2)C(N)=O)nc1Nc1ccc2ncccc2c1 [Example 8, (R)-5-(1-amino-3-cyclopropyl-1-oxopropan-2-ylamino)-3-(quinolin-6-ylamino)pyrazine-2-carboxamide]"
20,0.001 to 0.01 µM,"CC[C@@H](Nc1cnc(C(N)=O)c(Nc2ccc3nccnc3c2)n1)C(N)=O [Example 369, (R)-5-(1-amino-1-oxobutan-2-ylamino)-3-(quinoxalin-6-ylamino)pyrazine-2-carboxamide]"
21,0.001 to 0.01 µM,"CC(C)(C)C[C@@H](Nc1cnc(C(N)=O)c(Nc2ccnc(F)c2)n1)C(N)=O [Example 265, (R)-5-(1-amino-4,4-dimethyl-1-oxopentan-2-ylamino)-3-(2-fluoropyridin-4-ylamino)pyrazine-2-carboxamide]"
